Test results published in PubChem BioAssay (NCI).
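Here, GI50 denotes the concentration required for 50% inhibition of growth. TGI: total growth inhibition.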

Key:
Assay in all cases: growth of human tumour cells (NCI), 384-well format
MALME-3M melanoma = test system: MALME-3M melanoma
HCC-2998 colon = test system: HCC-2998 colon
HOP-92 NSCLC = test system: HOP-92 NSCLC
MDA-MB-231 breast = test system: MDA-MB-231 breast
SNB-19 CNS = test system: SNB-19 CNS
HOP-62 NSCLC = test system: HOP-62 NSCLC
HL-60(TB) leukemia = test system: HL-60(TB) leukemia
HCT-15 colon = test system: HCT-15 colon
SNB-75 CNS = test system: SNB-75 CNS
ACHN renal = test system: ACHN renal
SN12C renal = test system: SN12C renal
SF-539 CNS = test system: SF-539 CNS
SK-OV-3 ovarian = test system: SK-OV-3 ovarian
NCI-H23 lung = test system: NCI-H23 lung
NCI-H460 NSCLC = test system: NCI-H460 NSCLC
SF-268 CNS = test system: SF-268 CNS
RPMI-8226 leukemia = test system: RPMI-8226 leukemia
TK-10 renal = test system: TK-10 renal
MDA-MB-435 melanoma = test system: MDA-MB-435 melanoma
DU-145 prostate = test system: DU-145 prostate
NCI-H226 lung = test system: NCI-H226 lung
OVCAR-8 ovarian = test system: OVCAR-8 ovarian
RXF 393 renal = test system: RXF 393 renal
U251 glioblastoma = test system: U251 glioblastoma
SF-295 CNS = test system: SF-295 CNS
HS 578T breast = test system: HS 578T breast
MDA-MB-468 breast = test system: MDA-MB-468 breast
UACC-257 melanoma = test system: UACC-257 melanoma
IGROV1 ovarian = test system: IGROV1 ovarian
EKVX NSCLC = test system: EKVX NSCLC
A549 NSCLC = test system: A549 NSCLC
SK-MEL-5 melanoma = test system: SK-MEL-5 melanoma
OVCAR-4 ovarian = test system: OVCAR-4 ovarian
A498 renal = test system: A498 renal
BT-549 breast = test system: BT-549 breast
T-47D breast = test system: T-47D breast
NCI-H522 lung = test system: NCI-H522 lung
PC-3 prostate = test system: PC-3 prostate
OVCAR-5 ovarian = test system: OVCAR-5 ovarian
MCF7 breast = test system: MCF7 breast
NCI-H322M lung = test system: NCI-H322M lung
OVCAR-3 ovarian = test system: OVCAR-3 ovarian
SR leukemia = test system: SR leukemia
NCI/ADR-RES ovarian = test system: NCI/ADR-RES ovarian
HT29 colon = test system: HT29 colon
COLO 205 colon = test system: COLO 205 colon
MOLT-4 leukemia = test system: MOLT-4 leukemia
KM12 colon = test system: KM12 colon
SK-MEL-28 melanoma = test system: SK-MEL-28 melanoma
M14 melanoma = test system: M14 melanoma
CAKI-1 renal = test system: CAKI-1 renal
LOX IMVI melanoma = test system: LOX IMVI melanoma
UACC-62 melanoma = test system: UACC-62 melanoma
HCT-116 colon = test system: HCT-116 colon

Question: What does the source list for `CC(C)C[C@H](NC(=O)[C@@H](NC(=O)c1cccc(-c2ccccc2)n1)[C@@H](C)O)B(O)O`?
Answer: GI50 (MALME-3M melanoma): 104 nM; TGI (MALME-3M melanoma): 239 nM; GI50 (HCC-2998 colon): 141 nM; TGI (HCC-2998 colon): 371 nM; GI50 (HOP-92 NSCLC): 432 nM; TGI (HOP-92 NSCLC): 1890 nM; GI50 (MDA-MB-231 breast): 327 nM; TGI (MDA-MB-231 breast): 1280 nM; GI50 (SNB-19 CNS): 234 nM; TGI (SNB-19 CNS): 870 nM; GI50 (HOP-62 NSCLC): 237 nM; TGI (HOP-62 NSCLC): 765 nM; GI50 (HL-60(TB) leukemia): 77.6 nM; TGI (HL-60(TB) leukemia): 198 nM; GI50 (HCT-15 colon): 556 nM; TGI (HCT-15 colon): 1880 nM; GI50 (SNB-75 CNS): 297 nM; TGI (SNB-75 CNS): 1260 nM; GI50 (ACHN renal): 239 nM; TGI (ACHN renal): 957 nM; GI50 (SN12C renal): 123 nM; TGI (SN12C renal): 422 nM; GI50 (SF-539 CNS): 165 nM; TGI (SF-539 CNS): 308 nM; GI50 (SK-OV-3 ovarian): 560 nM; TGI (SK-OV-3 ovarian): 11 µM; GI50 (NCI-H23 lung): 292 nM; TGI (NCI-H23 lung): 1190 nM; GI50 (NCI-H460 NSCLC): 426 nM; TGI (NCI-H460 NSCLC): 1550 nM; GI50 (SF-268 CNS): 266 nM; TGI (SF-268 CNS): 787 nM; GI50 (RPMI-8226 leukemia): 11.2 nM; TGI (RPMI-8226 leukemia): 26 nM; GI50 (TK-10 renal): 157 nM; TGI (TK-10 renal): 418 nM; GI50 (MDA-MB-435 melanoma): 163 nM; TGI (MDA-MB-435 melanoma): 305 nM; GI50 (DU-145 prostate): 432 nM; TGI (DU-145 prostate): 1760 nM; GI50 (NCI-H226 lung): 11.4 nM; TGI (NCI-H226 lung): 103 nM; GI50 (OVCAR-8 ovarian): 374 nM; TGI (OVCAR-8 ovarian): 1520 nM; GI50 (RXF 393 renal): 147 nM; TGI (RXF 393 renal): 297 nM; GI50 (U251 glioblastoma): 420 nM; TGI (U251 glioblastoma): 1940 nM; GI50 (SF-295 CNS): 374 nM; TGI (SF-295 CNS): 1540 nM; GI50 (HS 578T breast): 143 nM; TGI (HS 578T breast): 294 nM; GI50 (MDA-MB-468 breast): 168 nM; TGI (MDA-MB-468 breast): 405 nM; GI50 (UACC-257 melanoma): 116 nM; TGI (UACC-257 melanoma): 245 nM; GI50 (IGROV1 ovarian): 560 nM; TGI (IGROV1 ovarian): 2120 nM; GI50 (EKVX NSCLC): 523 nM; TGI (EKVX NSCLC): 2850 nM; GI50 (A549 NSCLC): 1080 nM; TGI (A549 NSCLC): 16.3 µM; GI50 (SK-MEL-5 melanoma): 129 nM; TGI (SK-MEL-5 melanoma): 285 nM; GI50 (OVCAR-4 ovarian): 210 nM; TGI (OVCAR-4 ovarian): 569 nM; GI50 (A498 renal): 312 nM; TGI (A498 renal): 1850 nM; GI50 (BT-549 breast): 139 nM; TGI (BT-549 breast): 288 nM; GI50 (T-47D breast): 224 nM; TGI (T-47D breast): 783 nM; GI50 (NCI-H522 lung): 122 nM; TGI (NCI-H522 lung): 249 nM; GI50 (PC-3 prostate): 257 nM; TGI (PC-3 prostate): 685 nM; GI50 (OVCAR-5 ovarian): 260 nM; TGI (OVCAR-5 ovarian): 940 nM; GI50 (MCF7 breast): 129 nM; TGI (MCF7 breast): 10.7 µM; GI50 (NCI-H322M lung): 2030 nM; TGI (NCI-H322M lung): 11.8 µM; GI50 (OVCAR-3 ovarian): 103 nM; TGI (OVCAR-3 ovarian): 228 nM; TGI (SR leukemia): 221 nM; GI50 (NCI/ADR-RES ovarian): 11.1 µM; TGI (NCI/ADR-RES ovarian): 24.5 µM; GI50 (HT29 colon): 127 nM; TGI (HT29 colon): 274 nM; GI50 (COLO 205 colon): 442 nM; TGI (COLO 205 colon): > 100 µM; GI50 (MOLT-4 leukemia): 21.8 nM; TGI (MOLT-4 leukemia): 56.4 nM; GI50 (KM12 colon): 346 nM; TGI (KM12 colon): 1280 nM; GI50 (SK-MEL-28 melanoma): 89.1 nM; TGI (SK-MEL-28 melanoma): 240 nM; GI50 (M14 melanoma): 163 nM; TGI (M14 melanoma): 305 nM; GI50 (CAKI-1 renal): 492 nM; TGI (CAKI-1 renal): 19 µM; GI50 (LOX IMVI melanoma): 216 nM; TGI (LOX IMVI melanoma): 507 nM; GI50 (UACC-62 melanoma): 291 nM; TGI (UACC-62 melanoma): 1160 nM; GI50 (HCT-116 colon): 160 nM; TGI (HCT-116 colon): 347 nM
